Measured values: PubChem BioAssay AID328 (DTP/NCI, 2004)
“And” between values parts separate entries of the source, which are not always exact repeats. Identical values can stand only once. Toxic doses and inconclusive results are not listed. Non-standard residues stand in square brackets, D forms with d. Residues, ends and D or L forms follow the SMILES beside them. ξ: configuration not given here. *: point of attachment. Nphe = O=C(O)CNCc1ccccc1; ξL = CC(C)CC(N)C(=O)O; Ms = CS(=O)(=O)*

Test system: BDF1 mice, P388 leukemia ip, median survival T/C
Assay: NCI In Vivo Anticancer Drug Screen. Data for tumor model P388 Leukemia (intraperitoneal) in B6D2F1 (BDF1) mice
Details: endpoint: median survival time, higher = longer survival
In short: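 Compound-treated tumour-bearing mice were compared with vehicle-treated controls. Survival was recorded, and the value is the treated-group measurement divided by the control-group measurement (T/C).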

[1] = dose: 6.25 mg/kg/injection, schedule: Q01DX009 (ip), vehicle: saline with Tween-80
[2] = dose: 12.5 mg/kg/injection, schedule: Q01DX009 (ip), vehicle: saline with Tween-80
[3] = dose: 25.0 mg/kg/injection, schedule: Q01DX009 (ip), vehicle: saline with Tween-80
[4] = dose: 50.0 mg/kg/injection, schedule: Q04DX003 (ip), vehicle: saline with Tween-80
[5] = dose: 100.0 mg/kg/injection, schedule: Q04DX003 (ip), vehicle: saline with Tween-80
[6] = dose: 200.0 mg/kg/injection, schedule: Q04DX003 (ip), vehicle: saline with Tween-80
[7] = dose: 6.25 mg/kg/injection, schedule: Q04DX003 (ip), vehicle: other
[8] = dose: 25.0 mg/kg/injection, schedule: Q04DX003 (ip), vehicle: water
[9] = dose: 50.0 mg/kg/injection, schedule: Q04DX003 (ip), vehicle: saline
[10] = dose: 100.0 mg/kg/injection, schedule: Q04DX003 (ip), vehicle: saline
[11] = dose: 200.0 mg/kg/injection, schedule: Q04DX003 (ip), vehicle: saline
[12] = dose: 50.0 mg/kg/injection, schedule: Q01DX009 (ip), vehicle: other
[13] = dose: 200.0 mg/kg/injection, schedule: Q01DX009 (ip), vehicle: other
[14] = dose: 12.5 mg/kg/injection, schedule: Q01DX009 (ip), vehicle: other
[15] = dose: 25.0 mg/kg/injection, schedule: Q01DX009 (ip), vehicle: other
[16] = dose: 100.0 mg/kg/injection, schedule: Q01DX009 (ip), vehicle: other
[17] = dose: 12.5 mg/kg/injection, schedule: Q04DX003 (ip), vehicle: saline
[18] = dose: 25.0 mg/kg/injection, schedule: Q04DX003 (ip), vehicle: saline
[19] = dose: 50.0 mg/kg/injection, schedule: Q01DX009 (ip), vehicle: saline with Tween-80

CC(C)C(C)/C=C\C(C)C1CCC2C3=CCC4CC(O)CCC4(C)C3CCC21C (stereo not given)
T/C [1]: 100 % of control | T/C [2]: 101 % of control | T/C [3]: 94 % of control

CCC[P+](c1ccccc1)(c1ccccc1)c1ccccc1
T/C (dose: 2.0 mg/kg/injection, schedule: Q01DX009 (ip), vehicle: saline): 111 % of control | T/C (dose: 4.0 mg/kg/injection, schedule: Q01DX009 (ip), vehicle: saline): 115 % of control | T/C (dose: 8.0 mg/kg/injection, schedule: Q01DX009 (ip), vehicle: saline): 123 % of control

CCCCCOc1cc(C(=O)NN)nc(C(=O)NN)c1
T/C (dose: 1.56 mg/kg/injection, schedule: Q01DX009 (ip), vehicle: saline with Tween-80): 103 % of control | T/C (dose: 3.13 mg/kg/injection, schedule: Q01DX009 (ip), vehicle: saline with Tween-80): 111 % of control | T/C [1]: 111 % of control | T/C [2]: 116 % of control

Cc1nnc2ncnn2c1N(C)c1ccccc1
T/C [4]: 100 % of control | T/C [5]: 95 % of control | T/C [6]: 100 % of control

COc1cc2c(cc1OC)-c1c(C)c3ccc(OC)c(NCc4ccccc4)c3c[n+]1CC2
T/C (dose: 1.56 mg/kg/injection, schedule: Q04DX003 (ip), vehicle: other): 107 % of control | T/C (dose: 3.13 mg/kg/injection, schedule: Q04DX003 (ip), vehicle: other): 100 % of control | T/C [7]: 90 % of control

CCCCNC(C)C1(O)Cc2c(O)c3c(c(O)c2C(OC2CC(N)C(O)C(C)O2)C1)C(=O)c1c(OC)cccc1C3=O (stereo not given)
T/C (dose: 10.0 mg/kg/injection, schedule: Q01DX009 (ip), vehicle: water): 157 % of control | T/C (dose: 20.0 mg/kg/injection, schedule: Q01DX009 (ip), vehicle: water): 168 % of control | T/C [8]: 116 % of control | T/C (dose: 40.0 mg/kg/injection, schedule: Q01DX009 (ip), vehicle: water): 185 % of control | T/C (dose: 50.0 mg/kg/injection, schedule: Q04DX003 (ip), vehicle: water): 114 % of control | T/C (dose: 100.0 mg/kg/injection, schedule: Q04DX003 (ip), vehicle: water): 105 % of control | T/C (dose: 200.0 mg/kg/injection, schedule: Q04DX003 (ip), vehicle: water): 151 % of control | T/C (dose: 400.0 mg/kg/injection, schedule: Q04DX003 (ip), vehicle: water): 118 % of control

NOCc1ccc(CON)cc1
T/C [9]: 87 % of control | T/C [10]: 91 % of control | T/C [11]: 95 % of control

CC(C)CC(NC(=O)CN(Cc1ccccc1)S(C)(=O)=O)C(=O)O (stereo not given) (Ms-[Nphe]-[ξL]-OH)
T/C [7]: 110 % of control | T/C (dose: 12.5 mg/kg/injection, schedule: Q04DX003 (ip), vehicle: other): 97 % of control | T/C (dose: 25.0 mg/kg/injection, schedule: Q04DX003 (ip), vehicle: other): 113 % of control | T/C [12]: 151 % of control | T/C (dose: 50.0 mg/kg/injection, schedule: Q04DX003 (ip), vehicle: other): 95 % of control and 98 % of control | T/C (dose: 100.0 mg/kg/injection, schedule: Q04DX003 (ip), vehicle: other): 100 % of control and 103 % of control | T/C [13]: 89 % of control | T/C (dose: 200.0 mg/kg/injection, schedule: Q04DX003 (ip), vehicle: other): 98 % of control and 106 % of control | T/C (dose: 400.0 mg/kg/injection, schedule: Q04DX003 (ip), vehicle: other): 106 % of control

COC(=O)C1CN(c2ccccc2)N=C1C(C)=O (stereo not given)
T/C [5]: 89 % of control | T/C [6]: 86 % of control

Cc1nc2ncn(C)c2nc1C
T/C (dose: 25.0 mg/kg/injection, schedule: Q01DX001 (ip), vehicle: saline sonified): 105 % of control | T/C (dose: 50.0 mg/kg/injection, schedule: Q01DX001 (ip), vehicle: saline sonified): 100 % of control | T/C (dose: 100.0 mg/kg/injection, schedule: Q01DX001 (ip), vehicle: saline sonified): 105 % of control

COc1cc2c(cc1OC)-c1c(C)c3ccc(OC)c(NCCN)c3c[n+]1CC2
T/C (dose: 3.12 mg/kg/injection, schedule: Q01DX005 (ip), vehicle: water): 100 % of control | T/C (dose: 3.13 mg/kg/injection, schedule: Q04DX003 (ip), vehicle: water): 101 % of control | T/C (dose: 6.25 mg/kg/injection, schedule: Q01DX005 (ip), vehicle: water): 97 % of control | T/C (dose: 6.25 mg/kg/injection, schedule: Q04DX003 (ip), vehicle: water): 108 % of control | T/C (dose: 12.5 mg/kg/injection, schedule: Q01DX005 (ip), vehicle: water): 100 % of control | T/C (dose: 12.5 mg/kg/injection, schedule: Q04DX003 (ip), vehicle: water): 110 % of control | T/C (dose: 25.0 mg/kg/injection, schedule: Q01DX005 (ip), vehicle: water): 98 % of control | T/C [8]: 98 % of control and 120 % of control

COc1cc(Br)cc(C(=O)O)c1OC
T/C (dose: 50.0 mg/kg/injection, schedule: Q01DX009 (ip), vehicle: distilled water + Tween-80): 96 % of control | T/C (dose: 100.0 mg/kg/injection, schedule: Q01DX009 (ip), vehicle: distilled water + Tween-80): 88 % of control

CC1=C(C(=O)OCc2ccccc2)C(c2ccc(Cl)cc2)C(C(=O)OCc2ccccc2)=C(C)N1
T/C [14]: 100 % of control | T/C [15]: 94 % of control | T/C [12]: 90 % of control | T/C [16]: 89 % of control | T/C [13]: 90 % of control

C1CN2CCC1C1(C2)SSC2(CN3CCC2CC3)S1 (stereo not given)
T/C (dose: 6.25 mg/kg/injection, schedule: Q04DX003 (ip), vehicle: saline): 100 % of control | T/C [17]: 105 % of control | T/C [18]: 100 % of control

CCC(C)(C)c1ccc(OCCOS(=O)(=O)c2ccc(C)cc2)cc1
T/C [17]: 95 % of control | T/C [18]: 100 % of control | T/C [9]: 91 % of control

CC(C)C1=CC2=CC(=O)C3C(C)(C)CCCC3(C)C2=C(O)C1=O (stereo not given)
T/C (dose: 2.0 mg/kg/injection, schedule: Q01DX010 (ip), vehicle: carboxymethylcellulose (CMC)): 105 % of control | T/C (dose: 5.0 mg/kg/injection, schedule: Q01DX010 (ip), vehicle: carboxymethylcellulose (CMC)): 105 % of control | T/C (dose: 5.0 mg/kg/injection, schedule: Q01DX010 (ip), vehicle: other): 115 % of control | T/C (dose: 10.0 mg/kg/injection, schedule: Q01DX010 (ip), vehicle: carboxymethylcellulose (CMC)): 100 % of control | T/C (dose: 10.0 mg/kg/injection, schedule: Q01DX010 (ip), vehicle: other): 115 % of control | T/C (dose: 20.0 mg/kg/injection, schedule: Q01DX010 (ip), vehicle: carboxymethylcellulose (CMC)): 120 % of control

COc1cc2c3c(c1)/C(=N\N)CCN3CCC2
T/C [3]: 110 % of control | T/C [19]: 110 % of control | T/C [4]: 113 % of control | T/C (dose: 100.0 mg/kg/injection, schedule: Q01DX009 (ip), vehicle: saline with Tween-80): 100 % of control | T/C [5]: 95 % of control | T/C [6]: 100 % of control

N#[N+]c1ccc2c(S(=O)(=O)O)cccc2c1O
T/C (dose: 100.0 mg/kg/injection, schedule: Q01DX009 (ip), vehicle: saline): 92 % of control | T/C [10]: 100 % of control | T/C (dose: 200.0 mg/kg/injection, schedule: Q01DX009 (ip), vehicle: saline): 103 % of control | T/C [11]: 108 % of control | T/C (dose: 400.0 mg/kg/injection, schedule: Q01DX009 (ip), vehicle: saline): 89 % of control | T/C (dose: 400.0 mg/kg/injection, schedule: Q04DX003 (ip), vehicle: saline): 95 % of control

CCC1CN2CCc3cc(OC)c(OC)cc3C2CC1C#N (stereo not given)
T/C [2]: 89 % of control | T/C [3]: 89 % of control | T/C [19]: 86 % of control

O=C(CC/[N+]([O-])=C/c1ccccc1)OCc1ccccc1
T/C [14]: 92 % of control | T/C [15]: 97 % of control | T/C [12]: 103 % of control | T/C [16]: 97 % of control | T/C [13]: 92 % of control

O=C1C=C(N2CC2)C(=O)C(N2CC2)=C1N1CC1
T/C (dose: 0.02 mg/kg/injection, schedule: Q01DX009 (ip), vehicle: saline): 265 % of control and 328 % of control | T/C (dose: 0.04 mg/kg/injection, schedule: Q01DX009 (ip), vehicle: saline): 98 % of control
